From paper PMC11882969 (Nature Communications, 2025)
Where “and” joins values, the source holds several entries; their conditions need not be identical. Equal values may be shown once.

Biological target: hCB1 (Homo sapiens, UniProt P21554)
Test: bioSensAll ebBRET signaling profiling, hCB1
Assay type: cell-based
Set-up: host or cells: HEK293SL cells, transient PEI transfection
Conditions: for Gi1 hCB1 response: Gi1 biosensor; for Gi1 hCB1 / GoB hCB1: single replicate values, FigS6a
[1] = Log [Compound] (M) -13, individual replicate values

Sequence of hCB1 (P21554 whole entry): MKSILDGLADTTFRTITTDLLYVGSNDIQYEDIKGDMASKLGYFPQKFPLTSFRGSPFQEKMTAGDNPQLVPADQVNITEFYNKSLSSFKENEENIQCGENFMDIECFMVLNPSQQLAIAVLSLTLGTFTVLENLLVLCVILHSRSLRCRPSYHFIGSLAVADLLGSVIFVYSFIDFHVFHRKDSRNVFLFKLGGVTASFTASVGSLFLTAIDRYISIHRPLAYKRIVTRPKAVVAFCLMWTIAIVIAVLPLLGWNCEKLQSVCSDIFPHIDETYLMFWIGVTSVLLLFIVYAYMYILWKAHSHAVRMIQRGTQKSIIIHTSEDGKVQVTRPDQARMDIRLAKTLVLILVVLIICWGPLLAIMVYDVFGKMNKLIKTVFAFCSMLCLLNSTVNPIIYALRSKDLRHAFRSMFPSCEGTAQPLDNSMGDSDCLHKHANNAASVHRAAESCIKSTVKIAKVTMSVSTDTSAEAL

## Cc1cc(C(=O)N2CC3(CCC3)[C@@H]2[C@H]2CCCO2)nn1-c1cccc(C(F)(F)F)c1 (single isomer, unassigned) [compound 430]
Log [Compound] (M) -4.22186
  Gi1 hCB1 response: 4.286
  Gi1 hCB1: 3.789
  GoB hCB1: 6.14
Log [Compound] (M) -4.63927
  Gi1 hCB1 response: -17.6928
  Gi1 hCB1: -1.761
  GoB hCB1: -3.176
Log [Compound] (M) -5.05788
  Gi1 hCB1 response: -21.811
  Gi1 hCB1: -2.054
  GoB hCB1: -0.4061
Log [Compound] (M) -5.47381
  Gi1 hCB1 response: -11.1127
  Gi1 hCB1: 0.08902
  GoB hCB1: 1.896
Log [Compound] (M) -5.89285
  Gi1 hCB1 response: -12.5003
  Gi1 hCB1: 0.7519
  GoB hCB1: 0.547
Log [Compound] (M) -6.31878
  Gi1 hCB1 response: -6.681
  Gi1 hCB1: 0.1815
  GoB hCB1: 1.86
Log [Compound] (M) -6.72585
  Gi1 hCB1 response: 6.524
  Gi1 hCB1: 1.1836
  GoB hCB1: 4.665
Log [Compound] (M) -7.14267
  Gi1 hCB1 response: -2.6525
  Gi1 hCB1: 0.9678
  GoB hCB1: 2.363
Log [Compound] (M) -7.55284
  Gi1 hCB1 response: 0.7047
  Gi1 hCB1: 0.274
  GoB hCB1: 5.3306
Log [Compound] (M) -8
  Gi1 hCB1 response: -4.174
  Gi1 hCB1: 0.5207
  GoB hCB1: 3.155
Log [Compound] (M) -8.22186
  Gi1 hCB1 response: 0.4361
  Gi1 hCB1: 0.08902
  GoB hCB1: -0.8557
Log [Compound] (M) -8.39794
  Gi1 hCB1 response: -4.779
  Gi1 hCB1: 1.23
  GoB hCB1: 3.334
Log [Compound] (M) -8.68787
  Gi1 hCB1 response: 4.89
  Gi1 hCB1: 1.214
  GoB hCB1: -1.521
Log [Compound] (M) -9.15521
  Gi1 hCB1 response: -2.764
  Gi1 hCB1: 1.245
  GoB hCB1: -0.6579
Log [Compound] (M) -9.61989
  Gi1 hCB1 response: -2.876
  Gi1 hCB1: 2.463
  GoB hCB1: 0.4211
Log [Compound] (M) -10.0969
  Gi1 hCB1 response: -2.115
  Gi1 hCB1: 1.338
  GoB hCB1: -1.125
Log [Compound] (M) -10.5529
  Gi1 hCB1 response: 4.689
  Gi1 hCB1: 0.1353
  GoB hCB1: -0.9456
Log [Compound] (M) -11.0177
  Gi1 hCB1 response: -4.667
  Gi1 hCB1: 0.5053
  GoB hCB1: 3.37
Log [Compound] (M) -11.4949
  Gi1 hCB1 response: -5.853
  Gi1 hCB1: 0.5207
  GoB hCB1: 5.385
Log [Compound] (M) -11.9208
  Gi1 hCB1 response: -0.9963
  Gi1 hCB1: 1.523
  GoB hCB1: 2.741
Log [Compound] (M) -12.3979
  Gi1 hCB1 response: 1.4433
  Gi1 hCB1: 0.7674
  GoB hCB1: 3.263
Log [Compound] (M) -12.8861
  Gi1 hCB1 response: -2.25
  Gi1 hCB1: 0.2586
  GoB hCB1: 4.072
[1]
  Gi1 hCB1 response: 4.375 and -8.248
Log [Compound] (M) -13
  Gi1 hCB1: 1.954 and 3.465
  GoB hCB1: 3.838 and 3.119

## COc1cccc(C(NC(=O)c2cc(C)n(-c3cccc(C(F)(F)F)c3)n2)c2ccco2)c1 (stereo not drawn) [‘1087]
Log [Compound] (M) -4.22186
  Gi1 hCB1 response: 111.515
  Gi1 hCB1: -6.833
  GoB hCB1: -8.4986
Log [Compound] (M) -4.63927
  Gi1 hCB1 response: -38.2838
  Gi1 hCB1: -6.864
  GoB hCB1: -10.0272
Log [Compound] (M) -5.05788
  Gi1 hCB1 response: -49.9669
  Gi1 hCB1: -7.357
  GoB hCB1: -7.545
Log [Compound] (M) -5.47381
  Gi1 hCB1 response: 11.0449
  Gi1 hCB1: -6.895
  GoB hCB1: -9.02
Log [Compound] (M) -5.89285
  Gi1 hCB1 response: -12.478
  Gi1 hCB1: -4.166
  GoB hCB1: -5.891
Log [Compound] (M) -6.31878
  Gi1 hCB1 response: -17.0885
  Gi1 hCB1: -2.0693
  GoB hCB1: -3.409
Log [Compound] (M) -6.72585
  Gi1 hCB1 response: -9.994
  Gi1 hCB1: -1.1443
  GoB hCB1: -0.5859
Log [Compound] (M) -7.14267
  Gi1 hCB1 response: -10.3741
  Gi1 hCB1: 2.34
  GoB hCB1: -0.6579
Log [Compound] (M) -7.55284
  Gi1 hCB1 response: 10.754
  Gi1 hCB1: 3.064
  GoB hCB1: 2.687
Log [Compound] (M) -8
  Gi1 hCB1 response: -2.496
  Gi1 hCB1: 2.926
  GoB hCB1: 1.8778
Log [Compound] (M) -8.22186
  Gi1 hCB1 response: 59.7022
  Gi1 hCB1: 2.463
  GoB hCB1: -2.043
Log [Compound] (M) -8.39794
  Gi1 hCB1 response: 12.6788
  Gi1 hCB1: -1.175
  GoB hCB1: 1.572
Log [Compound] (M) -8.68787
  Gi1 hCB1 response: -1.377
  Gi1 hCB1: 1.6
  GoB hCB1: -4.093
Log [Compound] (M) -9.15521
  Gi1 hCB1 response: -24.5192
  Gi1 hCB1: 2.463
  GoB hCB1: -0.01046
Log [Compound] (M) -9.61989
  Gi1 hCB1 response: 86.3361
  Gi1 hCB1: 1.8311
  GoB hCB1: 0.3672
Log [Compound] (M) -10.0969
  Gi1 hCB1 response: -14.3804
  Gi1 hCB1: 1.353
  GoB hCB1: 4.054
Log [Compound] (M) -10.5529
  Gi1 hCB1 response: -6.726
  Gi1 hCB1: 3.666
  GoB hCB1: 3.3884
Log [Compound] (M) -11.0177
  Gi1 hCB1 response: 6.211
  Gi1 hCB1: 2.525
  GoB hCB1: 3.856
Log [Compound] (M) -11.4949
  Gi1 hCB1 response: 9.702
  Gi1 hCB1: 4.128
  GoB hCB1: 2.507
Log [Compound] (M) -11.9208
  Gi1 hCB1 response: -11.0679
  Gi1 hCB1: 3.265
  GoB hCB1: 1.033
Log [Compound] (M) -12.3979
  Gi1 hCB1 response: -4.555
  Gi1 hCB1: 2.386
  GoB hCB1: 3.442
Log [Compound] (M) -12.8861
  Gi1 hCB1 response: -5.652
  Gi1 hCB1: 2.001
  GoB hCB1: 2.363
[1]
  Gi1 hCB1 response: -4.331 and 29.5096
Log [Compound] (M) -13
  Gi1 hCB1: 2.402 and 0.3203
  GoB hCB1: 4.845 and 3.406
